{"source": "ChEMBL document CHEMBL5465560", "about": "“Selectivity Literature for EUbOPEN Chemogenomic Library” (2024)", "key": {"[1]": {"biological_target": "Myosin-IIIa (Homo sapiens) (UniProt Q8NEV4)", "sequence (Q8NEV4 whole entry)": "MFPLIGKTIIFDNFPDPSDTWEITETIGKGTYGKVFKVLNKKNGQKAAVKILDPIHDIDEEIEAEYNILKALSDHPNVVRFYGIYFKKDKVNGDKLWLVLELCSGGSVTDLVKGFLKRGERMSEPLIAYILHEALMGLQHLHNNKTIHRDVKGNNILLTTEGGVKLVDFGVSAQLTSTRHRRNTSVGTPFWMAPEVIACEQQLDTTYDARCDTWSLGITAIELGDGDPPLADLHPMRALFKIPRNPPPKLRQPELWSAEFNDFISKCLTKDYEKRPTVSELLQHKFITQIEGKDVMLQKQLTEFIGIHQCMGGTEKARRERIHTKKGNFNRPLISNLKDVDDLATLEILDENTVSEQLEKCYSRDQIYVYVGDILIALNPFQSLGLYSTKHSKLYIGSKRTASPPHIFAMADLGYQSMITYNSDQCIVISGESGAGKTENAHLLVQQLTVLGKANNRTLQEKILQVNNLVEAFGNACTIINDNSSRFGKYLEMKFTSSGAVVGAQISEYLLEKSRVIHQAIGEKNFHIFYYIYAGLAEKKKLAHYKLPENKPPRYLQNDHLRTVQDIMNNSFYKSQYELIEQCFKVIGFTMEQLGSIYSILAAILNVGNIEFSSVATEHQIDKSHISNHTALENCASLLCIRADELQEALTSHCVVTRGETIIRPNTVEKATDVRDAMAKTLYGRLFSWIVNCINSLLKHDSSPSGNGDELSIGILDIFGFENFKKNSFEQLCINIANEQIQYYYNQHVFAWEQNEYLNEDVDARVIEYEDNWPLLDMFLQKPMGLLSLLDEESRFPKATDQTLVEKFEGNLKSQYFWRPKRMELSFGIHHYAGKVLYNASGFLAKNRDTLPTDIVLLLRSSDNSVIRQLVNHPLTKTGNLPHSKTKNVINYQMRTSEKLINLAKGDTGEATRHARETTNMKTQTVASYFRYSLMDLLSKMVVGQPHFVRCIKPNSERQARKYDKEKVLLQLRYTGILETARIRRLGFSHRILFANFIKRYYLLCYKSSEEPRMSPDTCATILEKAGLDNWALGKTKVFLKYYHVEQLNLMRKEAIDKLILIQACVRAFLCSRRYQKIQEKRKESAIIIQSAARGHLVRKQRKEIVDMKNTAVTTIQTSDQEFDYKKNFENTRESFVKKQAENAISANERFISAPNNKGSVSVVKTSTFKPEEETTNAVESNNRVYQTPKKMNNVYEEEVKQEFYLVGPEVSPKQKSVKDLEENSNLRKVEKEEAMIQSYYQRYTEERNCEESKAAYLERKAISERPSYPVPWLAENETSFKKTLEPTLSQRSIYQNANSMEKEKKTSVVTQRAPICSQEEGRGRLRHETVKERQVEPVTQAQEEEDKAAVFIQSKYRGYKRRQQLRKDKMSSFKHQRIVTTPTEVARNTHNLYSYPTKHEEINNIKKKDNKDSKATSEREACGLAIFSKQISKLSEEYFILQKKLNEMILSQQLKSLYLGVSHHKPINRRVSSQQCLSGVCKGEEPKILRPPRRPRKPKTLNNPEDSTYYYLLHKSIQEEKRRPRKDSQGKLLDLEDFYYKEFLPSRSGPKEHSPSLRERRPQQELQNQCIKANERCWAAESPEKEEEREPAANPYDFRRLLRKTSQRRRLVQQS", "assay": "Selectivity interaction (LanthaScreen Eu Kinase Binding Assay) EUB0001632a MYO3A", "details": "at 10 µM"}, "[2]": {"biological_target": "T1, Cyclin-dependent kinase-like 5 (Homo sapiens) (UniProt O76039)", "T1 sequence (whole entry)": "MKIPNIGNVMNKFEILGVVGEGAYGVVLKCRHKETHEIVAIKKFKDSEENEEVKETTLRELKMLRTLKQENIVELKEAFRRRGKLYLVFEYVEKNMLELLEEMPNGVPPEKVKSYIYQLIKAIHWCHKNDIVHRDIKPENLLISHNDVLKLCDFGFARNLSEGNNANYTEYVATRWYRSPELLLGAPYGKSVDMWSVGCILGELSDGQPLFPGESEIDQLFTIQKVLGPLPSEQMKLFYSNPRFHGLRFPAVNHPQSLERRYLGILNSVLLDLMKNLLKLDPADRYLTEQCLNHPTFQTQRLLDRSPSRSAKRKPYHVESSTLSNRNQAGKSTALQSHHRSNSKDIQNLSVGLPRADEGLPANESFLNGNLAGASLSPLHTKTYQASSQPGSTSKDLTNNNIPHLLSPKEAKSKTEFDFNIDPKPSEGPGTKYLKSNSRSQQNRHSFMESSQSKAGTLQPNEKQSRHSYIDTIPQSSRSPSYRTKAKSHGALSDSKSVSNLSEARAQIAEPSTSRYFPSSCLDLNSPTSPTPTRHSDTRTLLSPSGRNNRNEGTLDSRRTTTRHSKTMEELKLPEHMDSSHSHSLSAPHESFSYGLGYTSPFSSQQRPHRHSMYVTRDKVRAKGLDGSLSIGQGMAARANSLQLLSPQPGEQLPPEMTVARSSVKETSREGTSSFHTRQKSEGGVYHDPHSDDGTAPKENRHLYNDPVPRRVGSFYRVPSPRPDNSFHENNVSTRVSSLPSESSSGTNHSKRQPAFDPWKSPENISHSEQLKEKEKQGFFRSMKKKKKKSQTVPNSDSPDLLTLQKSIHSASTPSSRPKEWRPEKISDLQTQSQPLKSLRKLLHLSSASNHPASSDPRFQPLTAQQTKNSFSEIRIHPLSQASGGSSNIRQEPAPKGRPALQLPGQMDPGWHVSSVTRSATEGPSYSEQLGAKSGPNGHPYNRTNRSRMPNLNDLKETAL", "assay": "Selectivity interaction (KinomeScan (DiscoverX)) EUB0000666a CDKL5", "details": "at 10 µM"}, "[3]": {"biological_target": "T2, Serine/threonine-protein kinase ULK1 (Homo sapiens) (UniProt O75385)", "T2 sequence (whole entry)": "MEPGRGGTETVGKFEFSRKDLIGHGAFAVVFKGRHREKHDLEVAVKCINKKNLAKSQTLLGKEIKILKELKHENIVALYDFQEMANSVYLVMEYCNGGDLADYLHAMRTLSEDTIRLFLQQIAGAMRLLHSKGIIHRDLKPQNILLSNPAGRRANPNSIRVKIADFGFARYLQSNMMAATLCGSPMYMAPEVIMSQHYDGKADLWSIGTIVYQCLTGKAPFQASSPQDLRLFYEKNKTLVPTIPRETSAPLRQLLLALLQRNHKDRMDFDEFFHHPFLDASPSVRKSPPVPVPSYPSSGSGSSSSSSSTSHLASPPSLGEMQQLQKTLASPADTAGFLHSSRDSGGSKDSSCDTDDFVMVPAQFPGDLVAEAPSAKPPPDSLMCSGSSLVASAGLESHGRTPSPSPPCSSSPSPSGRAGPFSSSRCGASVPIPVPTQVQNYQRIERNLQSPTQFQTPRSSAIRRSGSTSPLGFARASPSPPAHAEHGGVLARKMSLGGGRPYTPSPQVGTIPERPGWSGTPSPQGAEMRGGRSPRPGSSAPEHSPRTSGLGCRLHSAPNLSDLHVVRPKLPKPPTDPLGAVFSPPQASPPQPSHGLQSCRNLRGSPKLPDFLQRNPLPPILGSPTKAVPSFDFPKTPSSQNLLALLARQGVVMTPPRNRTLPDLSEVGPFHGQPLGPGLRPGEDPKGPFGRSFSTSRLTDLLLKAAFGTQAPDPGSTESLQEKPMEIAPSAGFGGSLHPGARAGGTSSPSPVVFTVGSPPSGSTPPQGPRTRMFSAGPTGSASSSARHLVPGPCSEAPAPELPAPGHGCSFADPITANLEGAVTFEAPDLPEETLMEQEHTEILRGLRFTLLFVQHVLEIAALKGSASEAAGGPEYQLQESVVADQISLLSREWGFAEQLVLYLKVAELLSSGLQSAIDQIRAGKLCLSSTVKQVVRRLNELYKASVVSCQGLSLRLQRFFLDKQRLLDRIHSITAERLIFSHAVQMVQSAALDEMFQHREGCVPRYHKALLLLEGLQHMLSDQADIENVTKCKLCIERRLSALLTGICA", "assay": "Selectivity interaction (KinomeScan (DiscoverX)) EUB0000666a ULK1", "details": "at 10 µM"}, "[4]": {"biological_target": "TGF-beta receptor type-2 (Homo sapiens) (UniProt P37173)", "sequence (P37173 whole entry)": "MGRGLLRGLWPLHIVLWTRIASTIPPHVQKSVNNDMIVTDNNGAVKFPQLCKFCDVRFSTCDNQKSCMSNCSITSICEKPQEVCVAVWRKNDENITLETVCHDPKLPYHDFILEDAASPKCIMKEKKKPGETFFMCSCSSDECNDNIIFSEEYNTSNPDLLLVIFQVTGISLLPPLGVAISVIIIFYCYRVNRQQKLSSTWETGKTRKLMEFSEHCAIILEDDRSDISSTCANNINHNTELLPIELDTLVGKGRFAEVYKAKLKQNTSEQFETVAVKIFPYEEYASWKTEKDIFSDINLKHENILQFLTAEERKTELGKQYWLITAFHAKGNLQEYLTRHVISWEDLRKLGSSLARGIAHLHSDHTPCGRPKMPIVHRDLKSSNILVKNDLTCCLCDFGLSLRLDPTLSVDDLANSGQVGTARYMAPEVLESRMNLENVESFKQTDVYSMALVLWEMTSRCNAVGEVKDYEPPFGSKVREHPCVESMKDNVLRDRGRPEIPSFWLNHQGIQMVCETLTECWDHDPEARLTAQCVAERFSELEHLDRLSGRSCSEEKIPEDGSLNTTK", "assay": "Selectivity interaction (KinomeScan (DiscoverX)) EUB0000655a TGFBR2", "details": "at 10 µM"}, "[5]": {"biological_target": "Ribosomal protein S6 kinase alpha-3 (Homo sapiens, UniProt P51812)", "sequence (P51812 whole entry)": "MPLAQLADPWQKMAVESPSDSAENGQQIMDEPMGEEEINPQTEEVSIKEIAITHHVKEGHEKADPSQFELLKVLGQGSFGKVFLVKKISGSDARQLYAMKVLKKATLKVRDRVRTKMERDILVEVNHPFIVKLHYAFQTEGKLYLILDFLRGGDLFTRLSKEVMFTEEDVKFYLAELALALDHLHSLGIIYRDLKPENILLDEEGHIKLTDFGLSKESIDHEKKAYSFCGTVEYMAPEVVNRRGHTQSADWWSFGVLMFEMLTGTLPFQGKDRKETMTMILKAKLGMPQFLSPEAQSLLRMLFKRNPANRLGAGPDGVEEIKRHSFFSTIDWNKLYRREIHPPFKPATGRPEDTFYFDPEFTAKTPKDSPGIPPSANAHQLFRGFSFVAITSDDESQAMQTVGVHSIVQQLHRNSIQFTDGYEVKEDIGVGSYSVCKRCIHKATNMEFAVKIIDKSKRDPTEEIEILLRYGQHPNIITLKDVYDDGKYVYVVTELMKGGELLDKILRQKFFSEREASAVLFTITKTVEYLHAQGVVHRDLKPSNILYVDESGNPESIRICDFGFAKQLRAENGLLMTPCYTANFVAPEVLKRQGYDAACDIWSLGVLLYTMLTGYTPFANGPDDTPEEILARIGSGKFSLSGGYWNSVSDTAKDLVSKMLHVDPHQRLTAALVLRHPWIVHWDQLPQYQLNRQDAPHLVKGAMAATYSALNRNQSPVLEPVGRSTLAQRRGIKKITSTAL", "assay": "Selectivity interaction (KinomeScan (DiscoverX)) EUB0001079a RPS6KA3", "details": "at 1 µM"}, "[6]": {"biological_target": "T3, Serine/threonine-protein kinase RIO3 (Homo sapiens) (UniProt O14730)", "T3 sequence (whole entry)": "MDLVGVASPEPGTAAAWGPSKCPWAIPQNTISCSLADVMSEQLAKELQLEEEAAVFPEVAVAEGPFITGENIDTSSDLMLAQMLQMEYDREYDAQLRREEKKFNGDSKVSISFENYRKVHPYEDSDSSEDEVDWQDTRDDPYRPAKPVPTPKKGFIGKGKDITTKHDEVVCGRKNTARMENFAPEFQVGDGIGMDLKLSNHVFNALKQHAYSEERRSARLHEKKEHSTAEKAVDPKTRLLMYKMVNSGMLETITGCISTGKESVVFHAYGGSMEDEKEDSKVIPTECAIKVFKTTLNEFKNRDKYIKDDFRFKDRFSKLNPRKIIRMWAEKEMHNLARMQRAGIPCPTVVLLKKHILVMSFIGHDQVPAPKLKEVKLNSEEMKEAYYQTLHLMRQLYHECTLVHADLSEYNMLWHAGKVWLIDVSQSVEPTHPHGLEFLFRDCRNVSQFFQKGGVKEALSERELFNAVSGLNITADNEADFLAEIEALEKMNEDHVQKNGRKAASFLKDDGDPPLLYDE", "assay": "Selectivity interaction (KinomeScan (DiscoverX)) EUB0001619a RIOK3", "details": "at 1 µM"}}, "data": [{"molecule": "Cn1cc(-n2cnc3c(NCc4nc5cc(Cl)c(Cl)cc5[nH]4)nc(N4CCOCC4)nc32)cn1", "values": [{"measurement": "% of inhibition", "setting": "[1]", "result": -42.6, "unit": "%"}]}, {"molecule": "O=C(NOC[C@H](O)CO)c1ccc(F)c(F)c1Nc1ccc(I)cc1F", "values": [{"measurement": "% of control", "setting": "[2]", "result": 67, "unit": "%"}, {"measurement": "% of control", "setting": "[3]", "result": 100, "unit": "%"}]}, {"molecule": "CN(C)CCOc1ccc(-c2nc(-c3ccncc3)c(-c3ccc4c(c3)CC/C4=N\\O)[nH]2)cc1", "values": [{"measurement": "% of control", "setting": "[4]", "result": 44, "unit": "%"}]}, {"molecule": "Nc1cnc(N2CCc3cc(S(=O)(=O)Nc4c(F)cc(Cl)cc4F)cc(N4CCCC4=O)c32)nc1", "note": "[TP-020n]", "values": [{"measurement": "% of control", "setting": "[5]", "result": 84, "unit": "%"}]}, {"molecule": "N#Cc1cccc(-c2c[nH]c3ncnc(N4CCOCC4)c23)c1", "values": [{"measurement": "% of control", "setting": "[6]", "result": 4.8, "unit": "%"}]}]}
